The values below come from US6313171A, “Method for preventing or treating elevated blood lipid level-related diseases by administering cinnamic acid derivatives” (Korea Research Institute of Bioscience & Biotechnology, priority 1998, dated 2001).

Data set [1] can be described thus: Acute oral toxicity in ICR mice. The class given is in vivo, mouse. The protocol:
12 seven-week-old, specific pathogen-free ICR […] mice, six female mice each weighing about 25 to 29 g and six male mice each weighing about 34 to 38 g, were kept under an environment of 22±1° C., 55±5% relative humidity and 12L/12D photoperiod. Fodder (Cheiljedang Co., mouse and rat fodder) and water were sterilized and fed to the mice.
4-hydroxycinnamic acid purchased from Aldrich-Sigma Chemical Co. (St. Louis, Mo., U.S.A) was dissolved in 0.5% Tween 80 to a concentration of 100 mg/ml, and the solution was orally administered to the mice in an amount of 0.2 ml per 20 g of mouse body weight. […] Further, on the 10th day, the mice were sacrificed and the internal organs were visually examined.

A short description of data set [2]: Plasma cholesterol and triglyceride in two men with hyperlipidemia. Conditions: 10 mg/kg daily oral capsule, 60 days. The class given is in vivo, human. How it is done:
Two men in their mid-fifties, suffered by hyperlipidemia with blood cholesterol level ranging from 230 to 270 mg/dl and blood triglyceride level ranging from 200 to 220 mg/dl, were administered with a daily oral dose of 10 mg/kg of 4-hydroxycinnamic acid in the form of a capsule for 60 days. The plasma cholesterol and triglyceride contents were determined before and after the administration.

For `O=C(O)/C=C/c1ccc(O)cc1` [4-Hydroxycinnamic acid, 4-hydroxycinnamic acid], in data set [1] (oral 1,000 mg/kg, 10th day), the “autopsy, internal organs” value was “had not developed any pathological abnormality”. Further, the weight changes entry in data set [1] (oral 1,000 mg/kg, 10 day test period) is reported as “no weight loss was observed”. Besides, in data set [1] (oral 1,000 mg/kg, day 10), the survival result is “All the mice were alive”. In addition, the toxicity result in data set [1] (single oral dose 1,000 mg/kg, mice, 10 days) is given as “showed no toxicity”. For the same molecule, in data set [2], the “reduction of plasma cholesterol content” value was 25% and the “reduction of plasma triglyceride content” value is 20%.
